Data taken from patent US6737383B1, “Herbicidal oxadiazolidines” (priority 1999, dated 2004).

Columns and labels:
sugar beet = assay: Test B pre/postemergence sugar beet; assay type: in vivo, Beta vulgaris
How it was run: (§1)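 Herbicidal effect was estimated by eye on a ten-point control scale after plants spent twelve to sixteen days in a greenhouse following soil or foliar treatment. Foliar sprays targeted plants at one to four leaves; all doses were formulated in a non-phytotoxic solvent with surfactant.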

bamyardgrass = assay: Test B flood test barnyardgrass; assay type: in vivo, Echinochloa crus-galli
How it was run: (§2)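 Each value is a visual injury score relative to controls, with 10 meaning complete control and 0 no effect. Evaluation took place twelve to sixteen days after the 2-leaf-stage plants were treated and kept in the greenhouse.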

crabgrass = assay: Test B pre/postemergence crabgrass; assay type: in vivo, Digitaria sanguinalis
How it was run: as §1

wild oat = assay: Test B pre/postemergence wild oat; assay type: in vivo, Avena fatua
How it was run: as §1

purple nutsedge = assay: Test B pre/postemergence purple nutsedge; assay type: in vivo, Cyperus rotundus
How it was run: as §1

rape = assay: Test B pre/postemergence rape; assay type: in vivo, Brassica napus
How it was run: as §1

cocklebur = assay: Test B pre/postemergence cocklebur; assay type: in vivo, Xanthium strumarium
How it was run: as §1

velvetleaf = assay: Test B pre/postemergence velvetleaf; assay type: in vivo, Abutilon theophrasti
How it was run: as §1

corn = assay: Test B pre/postemergence corn; assay type: in vivo, Zea mays
How it was run: as §1

smallflower flatsedge = assay: Test B flood test smallflower flatsedge; assay type: in vivo, Cyperus difformis
How it was run: as §2

pigweed = assay: Test B pre/postemergence pigweed; assay type: in vivo, Amaranthus retroflexus
How it was run: as §1

soybean = assay: Test B pre/postemergence soybean; assay type: in vivo, Glycine max
How it was run: as §1

giant foxtail = assay: Test B pre/postemergence giant foxtail; assay type: in vivo, Setaria faberii
How it was run: as §1

blackgrass = assay: Test B pre/postemergence blackgrass; assay type: in vivo, Alopecurus myosuroides
How it was run: as §1

surinam grass = assay: Test B pre/postemergence surinam grass; assay type: in vivo, Brachiaria decumbens
How it was run: as §1

morningglory = assay: Test B pre/postemergence morningglory; assay type: in vivo, Ipomoea hederacea
How it was run: as §1

[1] = Preemergence, Rate 62 g/ha, scale of 0 to 10 where 0 is no effect and 10 is complete control
[2] = Preemergence, Rate 250 g/ha, scale of 0 to 10 where 0 is no effect and 10 is complete control
[3] = Preemergence, Rate 500 g/ha, scale of 0 to 10 where 0 is no effect and 10 is complete control
[4] = Rate 62 g/ha, Postemergence, scale 0 to 10 (0 no effect, 10 complete control)
[5] = Rate 125 g/ha, Postemergence, scale of 0 to 10 where 0 is no effect and 10 is complete control
[6] = Rate 250 g/ha, Postemergence, scale of 0 to 10 where 0 is no effect and 10 is complete control
[7] = Rate 62 g/ha, headed Pre-emergence (flood test species), scale 0 to 10 (0 no effect, 10 complete control)
[8] = Rate 125 g/ha, Pre-emergence, flood test species, scale 0 to 10 where 0 is no effect and 10 is complete control
[9] = Rate 250 g/ha, Pre-emergence, flood-test species, scale 0 to 10, 0 is no effect, 10 is complete control
[10] = Rate 500 g/ha, Pre-emergence, flood test species, scale 0 to 10 (0 no effect, 10 complete control)
[11] = Rate 500 g/ha, Postemergence, scale 0 to 10, 0 no effect, 10 complete control

Structure (SMILES): CCN(C(=O)n1oc(=O)n(Cc2ccco2)c1=O)C1CCCCC1 [Compound 312]
- Sugarbeets plant response rating (sugar beet; [1]): 0
- Sugarbeets plant response rating (0 to 10 scale) (sugar beet; Preemergence, Rate 125 g/ha): 0
- Sugarbeets plant response rating (sugar beet; [2]): 0
- Sugarbeets plant response rating (sugar beet; [3]): 0
- Sugarbeets plant response rating (sugar beet; [4]): 0
- Sugarbeets plant response rating (sugar beet; [5]): 0
- Plant response rating, Sugarbeets (sugar beet; [6]): 0
- Barnyardgrass plant response rating (bamyardgrass; [7]): 0
- Barnyardgrass plant response rating (bamyardgrass; [8]): 0
- Barnyardgrass plant response rating (bamyardgrass; [9]): 0
- Barnyardgrass plant response rating (bamyardgrass; [10]): 0
- Crabgrass plant response rating (crabgrass; [1]): 0
- Crabgrass plant response rating (0 to 10 scale) (crabgrass; Preemergence, Rate 125 g/ha): 0
- Crabgrass plant response rating (crabgrass; [2]): 0
- Crabgrass plant response rating (crabgrass; [3]): 0
- Crabgrass plant response rating (crabgrass; [4]): 0
- Crabgrass plant response rating (crabgrass; [5]): 0
- Plant response rating, Crabgrass (crabgrass; [6]): 0
- Wild oats plant response rating (wild oat; [1]): 0
- Wild oats plant response rating (0 to 10 scale) (wild oat; Preemergence, Rate 125 g/ha): 0
- Wild oats plant response rating (wild oat; [2]): 0
- Wild oats plant response rating (wild oat; [3]): 0
- Wild oats plant response rating (wild oat; [4]): 0
- Wild oats plant response rating (wild oat; [5]): 0
- Plant response rating, Wild oats (wild oat; [6]): 0
- Nutsedge plant response rating (purple nutsedge; [1]): 0
- Nutsedge plant response rating (0 to 10 scale) (purple nutsedge; Preemergence, Rate 125 g/ha): 0
- Nutsedge plant response rating (purple nutsedge; [2]): 0
- Nutsedge plant response rating (purple nutsedge; [3]): 0
- Nutsedge plant response rating (purple nutsedge; [4]): 0
- Nutsedge plant response rating (purple nutsedge; [5]): 0
- Plant response rating, Nutsedge (purple nutsedge; [6]): 0
- Rape plant response rating (rape; [1]): 0
- Rape plant response rating (0 to 10 scale) (rape; Preemergence, Rate 125 g/ha): 0
- Rape plant response rating (rape; [2]): 0
- Rape plant response rating (rape; [3]): 0
- Rape plant response rating (rape; [4]): 0
- Rape plant response rating (rape; [5]): 0
- Plant response rating, Rape (rape; [6]): 0
- Cocklebur plant response rating (cocklebur; [1]): 0
- Cocklebur plant response rating (0 to 10 scale) (cocklebur; Preemergence, Rate 125 g/ha): 0
- Cocklebur plant response rating (cocklebur; [2]): 0
- Cocklebur plant response rating (cocklebur; [3]): 0
- Cocklebur plant response rating (cocklebur; [4]): 0
- Cocklebur plant response rating (cocklebur; [5]): 0
- Plant response rating, Cocklebur (cocklebur; [6]): 0
- Cocklebur plant response rating (cocklebur; [11]): 0
- Velvetleaf plant response rating (velvetleaf; [1]): 0
- Velvetleaf plant response rating (0 to 10 scale) (velvetleaf; Preemergence, Rate 125 g/ha): 0
- Velvetleaf plant response rating (velvetleaf; [2]): 0
- Velvetleaf plant response rating (velvetleaf; [3]): 0
- Velvetleaf plant response rating (velvetleaf; [4]): 0
- Velvetleaf plant response rating (velvetleaf; [5]): 0
- Plant response rating, Velvetleaf (velvetleaf; [6]): 0
- Corn plant response rating (corn; [1]): 0
- Corn plant response rating (0 to 10 scale) (corn; Preemergence, Rate 125 g/ha): 0
- Corn plant response rating (corn; [2]): 0
- Corn plant response rating (corn; [3]): 0
- Corn plant response rating (corn; [4]): 0
- Corn plant response rating (corn; [5]): 0
- Plant response rating, Corn (corn; [6]): 0
- Corn plant response rating (corn; [11]): 0
- S. Flatsedge plant response rating (smallflower flatsedge; [7]): 0
- S. Flatsedge plant response rating (smallflower flatsedge; [8]): 0
- S. Flatsedge plant response rating (smallflower flatsedge; [9]): 0
- S. Flatsedge plant response rating (smallflower flatsedge; [10]): 0
- Redroot pigweed plant response rating (pigweed; [1]): 0
- Redroot pigweed plant response rating (0 to 10 scale) (pigweed; Preemergence, Rate 125 g/ha): 0
- Redroot pigweed plant response rating (pigweed; [2]): 0
- Redroot pigweed plant response rating (pigweed; [3]): 0
- Redroot pigweed plant response rating (pigweed; [4]): 0
- Redroot pigweed plant response rating (pigweed; [5]): 0
- Plant response rating, Redroot pigweed (pigweed; [6]): 0
- Soybean plant response rating (soybean; [1]): 0
- Soybean plant response rating (0 to 10 scale) (soybean; Preemergence, Rate 125 g/ha): 0
- Soybean plant response rating (soybean; [2]): 0
- Soybean plant response rating (soybean; [3]): 0
- Soybean plant response rating (soybean; [4]): 2
- Soybean plant response rating (soybean; [5]): 2
- Plant response rating, Soybean (soybean; [6]): 3
- Giant foxtail plant response rating (giant foxtail; [1]): 0
- Giant foxtail plant response rating (0 to 10 scale) (giant foxtail; Preemergence, Rate 125 g/ha): 0
- Giant foxtail plant response rating (giant foxtail; [2]): 0
- Giant foxtail plant response rating (giant foxtail; [3]): 0
- Giant foxtail plant response rating (giant foxtail; [4]): 0
- Giant foxtail plant response rating (giant foxtail; [5]): 0
- Plant response rating, Giant foxtail (giant foxtail; [6]): 0
- Blackgrass plant response rating (blackgrass; [1]): 0
- Blackgrass plant response rating (0 to 10 scale) (blackgrass; Preemergence, Rate 125 g/ha): 0
- Blackgrass plant response rating (blackgrass; [2]): 0
- Blackgrass plant response rating (blackgrass; [3]): 0
- Blackgrass plant response rating (blackgrass; [4]): 0
- Blackgrass plant response rating (blackgrass; [5]): 0
- Plant response rating, Blackgrass (blackgrass; [6]): 0
- Blackgrass plant response rating (blackgrass; [11]): 0
- B. signalgrass plant response rating (surinam grass; [1]): 0
- B. signalgrass plant response rating (0 to 10 scale, 0 is no effect, 10 is complete control) (surinam grass; Preemergence, Rate 125 g/ha): 0
- B. signalgrass plant response rating (surinam grass; [2]): 0
- B. signalgrass plant response rating (surinam grass; [3]): 0
- B. signalgrass plant response rating (surinam grass; [4]): 0
- B. signalgrass plant response rating (surinam grass; [5]): 0
- Plant response rating, B. signalgrass (surinam grass; [6]): 0
- B. signalgrass plant response rating (surinam grass; [11]): 0
- Morningglory plant response rating (morningglory; [1]): 0
- Morningglory plant response rating (0 to 10 scale) (morningglory; Preemergence, Rate 125 g/ha): 0
- Morningglory plant response rating (morningglory; [2]): 0
- Morningglory plant response rating (morningglory; [3]): 0
- Morningglory plant response rating (morningglory; [4]): 0
- Morningglory plant response rating (morningglory; [5]): 0
- Plant response rating, Morningglory (morningglory; [6]): 0
